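Interpolation was linear, between the two tested concentrations surrounding the appropriate level; five concentrations were tested over 48 hours in 96-well plates. At the GI50, growth is halved.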 Calls of active or inactive are those of the source. Rule as the data show it: active = GI50 up to about 1.1 µM and inactive = higher.
Assays:
Test in all cases: inhibition of tumour cell growth, NCI panel, 48 h
RXF 393 = tested on: RXF 393
UACC-62 = tested on: UACC-62
KM12 = tested on: KM12
NCI-H226 = tested on: NCI-H226
OVCAR-8 = tested on: OVCAR-8
A498 = tested on: A498
NCI-H522 = tested on: NCI-H522
M19-MEL = tested on: M19-MEL
SF-268 = tested on: SF-268
UACC-257 = tested on: UACC-257
SNB-78 = tested on: SNB-78
SNB-75 = tested on: SNB-75
SK-MEL-2 = tested on: SK-MEL-2
OVCAR-4 = tested on: OVCAR-4
HL-60 = tested on: HL-60
Malme-3M = tested on: Malme-3M
COLO 205 = tested on: COLO 205
K562 = tested on: K562
SF-295 = tested on: SF-295
KM-20L2 = tested on: KM-20L2
ACHN = tested on: ACHN
CAKI-1 = tested on: CAKI-1
NCI-H460 = tested on: NCI-H460
IGROV-1 = tested on: IGROV-1
M14 = tested on: M14
SK-MEL-28 = tested on: SK-MEL-28
U-251 = tested on: U-251
SF-539 = tested on: SF-539
786-0 = tested on: 786-0
SK-MEL-5 = tested on: SK-MEL-5
OVCAR-3 = tested on: OVCAR-3
DMS-114 = tested on: DMS-114
HCC 2998 = tested on: HCC 2998
HCT-15 = tested on: HCT-15
HCT-116 = tested on: HCT-116
OVCAR-5 = tested on: OVCAR-5
SNB-19 = tested on: SNB-19
A549 = tested on: A549
XF498 = tested on: XF498
UO-31 = tested on: UO-31
DMS-273 = tested on: DMS-273
SK-OV-3 = tested on: SK-OV-3
MOLT-4 = tested on: MOLT-4
NCI-H23 = tested on: NCI-H23
HOP-62 = tested on: HOP-62
LOX IMVI = tested on: LOX IMVI
RXF 631 = tested on: RXF 631
CCRF-CEM = tested on: CCRF-CEM
LXFL 529 = tested on: LXFL 529
RPMI-8226 = tested on: RPMI-8226
TK-10 = tested on: TK-10
EKVX = tested on: EKVX
HT-29 = tested on: HT-29
SW-620 = tested on: SW-620
SN12C = tested on: SN12C
SR = tested on: SR
DLD-1 = tested on: DLD-1
HOP-18 = tested on: HOP-18
HOP-92 = tested on: HOP-92

Measured: GI50

CN/N=C(\C)C(CN1CCCCC1)C(C1=C(O)c2ccccc2OC1)c1ccccc1 (centres undefined)
inactive: RXF 393 > 100 µM | UACC-62 48 µM | KM12 > 100 µM | NCI-H226 > 100 µM | OVCAR-8 > 100 µM | A498 > 10 µM | NCI-H522 > 100 µM | M19-MEL > 100 µM | SF-268 > 100 µM | UACC-257 > 100 µM | SNB-78 > 100 µM | SNB-75 > 100 µM | SK-MEL-2 > 100 µM | OVCAR-4 > 100 µM | HL-60 35.2 µM | Malme-3M 91.8 µM | COLO 205 38.4 µM | K562 > 100 µM | SF-295 82 µM | KM-20L2 > 100 µM | ACHN > 100 µM | CAKI-1 > 100 µM | NCI-H460 > 100 µM | IGROV-1 78.3 µM | M14 > 100 µM | SK-MEL-28 > 100 µM | U-251 91.2 µM | SF-539 > 100 µM | 786-0 > 100 µM | SK-MEL-5 > 100 µM | OVCAR-3 > 100 µM | DMS-114 79.3 µM | HCC 2998 > 100 µM | HCT-116 > 100 µM | OVCAR-5 > 100 µM | SNB-19 > 100 µM | A549 > 100 µM | XF498 > 100 µM | UO-31 50.4 µM | DMS-273 > 100 µM | SK-OV-3 > 100 µM | MOLT-4 39.4 µM | NCI-H23 > 100 µM | HOP-62 > 100 µM | LOX IMVI > 100 µM | RXF 631 > 100 µM | CCRF-CEM 69.2 µM | LXFL 529 > 100 µM | RPMI-8226 44.3 µM | TK-10 > 100 µM | EKVX > 100 µM | HT-29 > 100 µM | SW-620 > 100 µM | SN12C > 100 µM | SR 51.3 µM
> 100 µM: HCT-15

Cc1nc(-c2nc(C)c(C(=O)/C=C/c3ccc(N(C)C)cc3)s2)sc1C(=O)/C=C/c1ccc(N(C)C)cc1
inactive: RXF 393 > 100 µM | UACC-62 18.5 µM | KM12 40.9 µM | NCI-H226 > 100 µM | OVCAR-8 > 100 µM | NCI-H522 31.3 µM | M19-MEL 51.1 µM | SF-268 > 100 µM | UACC-257 > 100 µM | SK-MEL-2 > 100 µM | OVCAR-4 46 µM | HL-60 46 µM | Malme-3M 66.4 µM | COLO 205 > 100 µM | K562 33.4 µM | SF-295 31.9 µM | KM-20L2 > 100 µM | ACHN > 100 µM | CAKI-1 > 100 µM | NCI-H460 > 100 µM | IGROV-1 31 µM | M14 38.5 µM | SK-MEL-28 67.3 µM | U-251 > 100 µM | SF-539 41.7 µM | 786-0 54 µM | OVCAR-3 > 100 µM | DMS-114 > 100 µM | HCC 2998 > 100 µM | HCT-116 29.3 µM | OVCAR-5 > 100 µM | SNB-19 64.1 µM | A549 44.2 µM | XF498 23.4 µM | UO-31 > 100 µM | DMS-273 39.1 µM | SK-OV-3 > 100 µM | MOLT-4 > 100 µM | NCI-H23 > 100 µM | HOP-62 > 100 µM | LOX IMVI 38.3 µM | RXF 631 > 100 µM | CCRF-CEM > 100 µM | LXFL 529 34.8 µM | TK-10 > 100 µM | EKVX > 100 µM | HT-29 > 10 µM | SW-620 31.2 µM | SN12C > 100 µM | SR > 100 µM | DLD-1 29.5 µM
37.8 µM: HCT-15

O=C1C=CC(=O)c2nc3c(cc21)CCC3
inactive: RXF 393 19.7 µM | UACC-62 18.6 µM | KM12 > 100 µM | OVCAR-8 15.2 µM | NCI-H522 12.6 µM | M19-MEL 17.2 µM | SF-268 17.9 µM | UACC-257 19.6 µM | SNB-78 18.5 µM | SNB-75 67.5 µM | OVCAR-4 15.7 µM | HL-60 4.67 µM | Malme-3M 17.5 µM | COLO 205 14.5 µM | HOP-18 14.5 µM | K562 16.9 µM | SF-295 > 100 µM | ACHN 18.8 µM | CAKI-1 17 µM | HOP-92 19.5 µM | NCI-H460 32.7 µM | IGROV-1 17.8 µM | M14 16.6 µM | SK-MEL-28 25.6 µM | U-251 78.5 µM | SF-539 > 10 µM | 786-0 18 µM | SK-MEL-5 20.4 µM | OVCAR-3 17.5 µM | DMS-114 18.3 µM | HCC 2998 > 100 µM | HCT-116 15.5 µM | OVCAR-5 > 100 µM | SNB-19 > 100 µM | A549 87.3 µM | XF498 18.6 µM | UO-31 > 100 µM | DMS-273 20.3 µM | MOLT-4 11.6 µM | NCI-H23 25 µM | HOP-62 > 100 µM | LOX IMVI 15.3 µM | RXF 631 > 100 µM | CCRF-CEM 5.61 µM | LXFL 529 15.5 µM | TK-10 18.5 µM | HT-29 45.9 µM | SW-620 16.6 µM | SN12C 19.1 µM | SR 5.92 µM | DLD-1 18.7 µM
